# Data taken from article PMC3277506, “Extra-Renal Elimination of Uric Acid via Intestinal Efflux Transporter BCRP/ABCG2” (PLoS ONE, 2012).
# “And” between values parts separate entries of the source, which are not always exact repeats. Equal values may be shown once. Read-outs that look alike come from different tables or passages of the source.
# Legend:
# [1] = Recovery of [14C]uric acid after intravenous administration in oxonate-treated rats; assay type: in vivo; conditions: percentage of dose; for dose excreted: male, Wistar, rat, iv, 2 µCi/rat
# Method: (§1) Male Wistar rats (280±30 g body weight) used in the present study were treated with potassium oxonate, a uric acid oxidase (uricase) inhibitor. Oxonate-treated rats were established as described previously, [48]. Briefly, rats were anesthetized with 50% urethane (2 mL/kg) and infused with 0.9% NaCl, 0.5% oxonate and 4% mannitol solution from the femoral vein at the flow rate of 3 mL/hr. As a bolus, 0.9% NaCl, 1.5% oxonate and 4% mannitol solution was administered from the jugular vein at 6 mL/kg. After equilibration for 80 min, blood, urine and bile samples were collected at 20-min intervals. When [^14C]uric acid (2 µCi/rat) was used, it was intravenously injected from the jugular vein after oxonate treatment for 80 min. In order to suppress the uricolysis of [^14C]uric acid by intestinal flora, animals received orally non-absorbed antibiotics, polymyxin B, kanamycin, and vancomycin at daily doses of 50, 50 and 20 mg/kg, respectively, for 7 days before this animal study. Urine and bile were collected at 20-min intervals, and blood samples were drawn at 1, 5, 10, 20, 40, 60, 80, 100 and 120 min. Urine and bile were collected from bladder and bile ducts, respectively, and blood from the jugular vein. In mice, urine was collected for 24 hours by using metabolic cages (Natsume, Tokyo, Japan).
# [2] = Clearance of endogenous uric acid (urine, bile, estimated intestine) in oxonate-treated rats; assay type: in vivo, rat
# Method: as §1
# The following equation was used to calculate intestinal secretory clearance (µL/min/cm loop) and estimated total intestinal secretory clearance (CLintestine, estimated) (mL/min): [drawing 1] [drawing 2] [drawing 3] where A is the amount of uric acid secreted into the intestinal lumen of each loop for 60 min, L is the length of the intestine, and AUC is area under the plasma concentration-time curve.
# Concentrations of uric acid in plasma, urine, bile, and intestinal content were analyzed by means of HPLC. Briefly, 80 µL 0.41% HClO4 was added to 40 µL of sample and mixed well. The sample was kept 4°C for 30 min. An aliquot was centrifuged at 15,000 rpm for 5 min at 4°C to separate denatured proteins. […] Uric acid was detected at 284 nm. […]
# hBCRP = target: T1, hBCRP (Homo sapiens, UniProt Q9UNQ0); assay: [14C]uric acid uptake by hBCRP-expressing membrane vesicles; assay type: biochemical; conditions: [14C]uric acid 20 µM, 5 min, 37°C, 4 mM ATP or AMP
# T1 construct: purchased GenoMembrane Inc. (Yokohama, Japan); host or cells: Sf9 cells
# T1 sequence (Q9UNQ0 1-655): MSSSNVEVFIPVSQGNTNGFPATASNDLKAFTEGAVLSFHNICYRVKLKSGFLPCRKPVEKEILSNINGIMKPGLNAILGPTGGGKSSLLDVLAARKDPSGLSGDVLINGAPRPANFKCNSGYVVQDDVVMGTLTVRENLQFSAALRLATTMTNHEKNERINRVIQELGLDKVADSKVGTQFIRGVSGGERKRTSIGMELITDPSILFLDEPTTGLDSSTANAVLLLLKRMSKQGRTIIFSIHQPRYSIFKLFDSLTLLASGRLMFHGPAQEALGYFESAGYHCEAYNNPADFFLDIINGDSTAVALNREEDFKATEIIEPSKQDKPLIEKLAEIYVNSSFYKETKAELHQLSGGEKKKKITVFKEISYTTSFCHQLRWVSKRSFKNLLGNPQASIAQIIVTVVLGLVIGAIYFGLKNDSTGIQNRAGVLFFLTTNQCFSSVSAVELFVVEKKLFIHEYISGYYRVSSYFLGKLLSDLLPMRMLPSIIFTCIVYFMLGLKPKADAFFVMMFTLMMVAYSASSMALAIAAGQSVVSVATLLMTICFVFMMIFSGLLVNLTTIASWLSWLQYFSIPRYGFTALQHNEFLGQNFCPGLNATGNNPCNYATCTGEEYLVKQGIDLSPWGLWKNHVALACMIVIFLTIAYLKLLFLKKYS
# Method: (§2) hBCRP/rBcrp, hMRP2/rMrp2, or hMDR1-expressing membrane vesicles prepared from Sf9 cells were purchased from GenoMembrane Inc. (Yokohama, Japan). Uptake experiments were conducted as described previously. Briefly, after a pre-incubation for 5 min at 37°C, membrane vesicles (50 µg protein/50 µL final reaction volume) were incubated for 5 min at 37°C in the presence of 4 mM ATP or AMP in assay buffer (1 M KCl, 1 M MgCl2, and 100 mM MOPS-Tris, pH 7.0) containing [^14C]uric acid (1 µCi/mL). The uptake reaction was terminated by adding 1 mL ice-cold washing buffer (1 M KCl, and 100 mM MOPS-Tris, pH 7.0) to the membrane solution, and the mixture was rapidly filtered through a nitrocellulose filter (0.45 µm pore size, Millipore, Bedford, MA). The filters were washed twice with 5 mL ice-cold washing buffer. The filters were dried and dissolved in Clearsol-I for quantitation of radioactivity.
# hMDR1 = target: T2, hMDR1 (Homo sapiens, UniProt P08183); assay: [14C]uric acid uptake by hMDR1-expressing membrane vesicles; assay type: biochemical; conditions: [14C]uric acid 20 µM, 5 min, 37°C, 4 mM ATP or AMP
# T2 construct: purchased GenoMembrane Inc. (Yokohama, Japan); host or cells: Sf9 cells
# Method: as §2
# rMdr1a = target: T3, rMdr1a (Rattus norvegicus, UniProt Q6PSM0); assay: Bidirectional transport of uric acid in LLC-PK1 cells expressing rMdr1a; assay type: in vitro ADME; conditions: data not shown
# T3 construct: expressed in transfected cells; host or cells: LLC-PK1 cells
# T3 sequence (Q6PSM0 1-1272): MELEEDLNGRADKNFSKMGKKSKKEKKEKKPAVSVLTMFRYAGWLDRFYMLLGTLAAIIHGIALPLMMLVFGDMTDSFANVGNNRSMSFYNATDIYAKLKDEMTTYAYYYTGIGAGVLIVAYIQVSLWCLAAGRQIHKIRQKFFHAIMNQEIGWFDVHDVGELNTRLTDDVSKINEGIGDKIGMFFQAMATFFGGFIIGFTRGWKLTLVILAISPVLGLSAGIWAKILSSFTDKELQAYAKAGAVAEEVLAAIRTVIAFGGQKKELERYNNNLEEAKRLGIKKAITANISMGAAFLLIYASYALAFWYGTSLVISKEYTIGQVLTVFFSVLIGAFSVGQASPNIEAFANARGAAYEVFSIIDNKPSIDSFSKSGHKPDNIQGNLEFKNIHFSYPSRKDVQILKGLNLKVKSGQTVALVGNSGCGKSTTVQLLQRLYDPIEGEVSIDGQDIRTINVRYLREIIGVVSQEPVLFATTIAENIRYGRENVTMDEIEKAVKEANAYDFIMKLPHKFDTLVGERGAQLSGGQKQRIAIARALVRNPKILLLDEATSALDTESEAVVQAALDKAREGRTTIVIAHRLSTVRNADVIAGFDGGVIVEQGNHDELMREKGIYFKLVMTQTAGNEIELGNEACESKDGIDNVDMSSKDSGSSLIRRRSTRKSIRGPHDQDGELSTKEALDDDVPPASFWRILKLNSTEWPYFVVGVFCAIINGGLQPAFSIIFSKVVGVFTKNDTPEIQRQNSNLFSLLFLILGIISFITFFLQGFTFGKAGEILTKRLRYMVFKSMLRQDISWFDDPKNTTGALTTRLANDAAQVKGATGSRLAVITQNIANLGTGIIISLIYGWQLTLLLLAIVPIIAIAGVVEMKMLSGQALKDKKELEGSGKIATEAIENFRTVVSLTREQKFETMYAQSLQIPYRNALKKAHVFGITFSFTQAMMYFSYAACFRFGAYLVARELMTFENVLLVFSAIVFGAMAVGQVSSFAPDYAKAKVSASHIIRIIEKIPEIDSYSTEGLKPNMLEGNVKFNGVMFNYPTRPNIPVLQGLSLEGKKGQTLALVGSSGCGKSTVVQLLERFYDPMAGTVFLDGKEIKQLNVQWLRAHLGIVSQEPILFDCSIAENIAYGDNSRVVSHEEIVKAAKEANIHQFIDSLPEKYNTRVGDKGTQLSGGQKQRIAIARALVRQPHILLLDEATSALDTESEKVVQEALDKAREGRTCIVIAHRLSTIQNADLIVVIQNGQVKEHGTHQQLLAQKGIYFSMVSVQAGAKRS
# T2 sequence (P08183 whole entry): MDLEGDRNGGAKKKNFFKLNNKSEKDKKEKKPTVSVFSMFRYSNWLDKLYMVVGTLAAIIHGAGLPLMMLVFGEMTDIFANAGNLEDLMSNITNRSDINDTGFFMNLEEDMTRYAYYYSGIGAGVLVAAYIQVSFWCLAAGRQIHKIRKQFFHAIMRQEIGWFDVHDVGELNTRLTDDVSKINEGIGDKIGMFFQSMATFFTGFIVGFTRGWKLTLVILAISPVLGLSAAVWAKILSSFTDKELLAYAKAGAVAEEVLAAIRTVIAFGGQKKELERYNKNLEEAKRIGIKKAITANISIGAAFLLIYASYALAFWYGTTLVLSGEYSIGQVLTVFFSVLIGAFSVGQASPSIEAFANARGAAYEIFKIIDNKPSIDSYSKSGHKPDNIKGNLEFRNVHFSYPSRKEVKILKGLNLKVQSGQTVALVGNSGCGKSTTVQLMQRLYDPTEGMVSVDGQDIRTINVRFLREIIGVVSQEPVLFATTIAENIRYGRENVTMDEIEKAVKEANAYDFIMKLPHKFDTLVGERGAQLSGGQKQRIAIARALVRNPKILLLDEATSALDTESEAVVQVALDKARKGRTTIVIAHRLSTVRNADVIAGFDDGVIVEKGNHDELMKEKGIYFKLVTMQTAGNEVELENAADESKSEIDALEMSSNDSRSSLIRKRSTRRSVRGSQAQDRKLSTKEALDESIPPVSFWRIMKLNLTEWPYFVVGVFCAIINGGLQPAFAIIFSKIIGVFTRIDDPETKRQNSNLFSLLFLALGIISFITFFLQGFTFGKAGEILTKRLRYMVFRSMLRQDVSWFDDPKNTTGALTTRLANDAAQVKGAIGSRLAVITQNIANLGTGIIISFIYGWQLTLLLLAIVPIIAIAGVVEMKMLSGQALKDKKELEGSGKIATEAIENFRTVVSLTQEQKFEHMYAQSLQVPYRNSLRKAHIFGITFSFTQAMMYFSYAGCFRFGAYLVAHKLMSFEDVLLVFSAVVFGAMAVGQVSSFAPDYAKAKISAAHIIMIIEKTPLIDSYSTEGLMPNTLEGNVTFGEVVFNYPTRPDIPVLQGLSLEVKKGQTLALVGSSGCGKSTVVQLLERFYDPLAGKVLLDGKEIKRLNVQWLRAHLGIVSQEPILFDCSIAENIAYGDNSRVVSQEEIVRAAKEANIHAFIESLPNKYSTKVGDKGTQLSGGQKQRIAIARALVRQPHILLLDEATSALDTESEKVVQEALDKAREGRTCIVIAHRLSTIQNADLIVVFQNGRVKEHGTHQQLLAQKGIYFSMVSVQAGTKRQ
structure (smiles),measurement,setting,value
O=c1[nH]c(=O)c2[nH]c(=O)[nH]c2[nH]1 [uric acid],dose excreted,"[1]; bile + intestine, up to 120 min, read-out: Recovery of [14C]uric acid, Bile+Intestine",9.58%
same,dose excreted,"[1]; bile, up to 120 min, read-out: Recovery of [14C]uric acid, Bile",0.68%
same,dose excreted,"[1]; urine, up to 120 min, read-out: Recovery of [14C]uric acid, Urine",42.6%
same,"Recovery of [14C]uric acid, Cp×Vd (remaining in the body)","[1]; iv 2 µCi/rat, 2 hrs after administration, rough estimation from distribution volume and plasma concentration",4.55%
same,"Recovery of [14C]uric acid, Intestine (luminal contents)","[1]; iv 2 µCi/rat, up to 120 min",8.90%
same,"Recovery of [14C]uric acid, Urine","[1]; iv 2 µCi/rat, up to 120 min",42.58%
same,"CLintestine, estimated (total intestinal secretory clearance)",[2]; from closed loop clearance and intestinal length,0.15 mL/min
same,CL renal,"[2]; male, Wistar, rat, urine (relative to plasma AUC), up to 60 min, amount excreted / plasma AUC, read-out: CLrenal of endogenous uric acid",0.5 ± 0.06 mL/min
same,CLbile of endogenous uric acid,"[2]; up to 60 min, amount excreted / plasma AUC",0.02 mL/min and 0.02 ± 0.002 mL/min
same,Uptake of uric acid in the presence of ATP versus AMP,hBCRP,significantly higher
same,ATP-dependent uric acid uptake,hMDR1,inactive
same,Secretory versus absorptive transport of uric acid,rMdr1a,no significant difference
